Reference: ChEMBL document CHEMBL2380212, “Synthesis, single crystal and antitumor activities of benzimidazole-quinazoline hybrids” (Bioorg Med Chem Lett, 2013)

Tests used:
[1] = n-Octanol-phosphate buffer partition coefficient, log P of the compound at pH 7.4 by shake flask method; format: physicochemical
[2] = system: BT-549; experiment: Cytotoxicity against human BT549 cells at 10 uM after 48 hrs by SRB assay; format: functional; settings: BT-549, 48 h, read-out: GI
[3] = system: T47D; experiment: Cytotoxicity against human T47D cells at 10 uM after 48 hrs by SRB assay; format: functional; settings: read-out: GI
[4] = system: Hs-578T; experiment: Cytotoxicity against human Hs578T cells at 10 uM after 48 hrs by SRB assay; format: functional; settings: read-out: GI
[5] = system: MCF7; experiment: Cytotoxicity against human MCF7 cells at 10 uM after 48 hrs by SRB assay; format: functional; settings: MCF7, 48 h, read-out: GI
[6] = system: MDA-MB-231; experiment: Cytotoxicity against human MDA-MB-231 cells at 10 uM after 48 hrs by SRB assay; format: functional; settings: MDA-MB-231, 48 h, read-out: GI
[7] = system: UO-31; experiment: Cytotoxicity against human UO31 cells at 10 uM after 48 hrs by SRB assay; format: functional; settings: UO-31, 48 h, read-out: GI
[8] = system: PC-3; experiment: Cytotoxicity against human PC3 cells at 10 uM after 48 hrs by SRB assay; format: functional; settings: PC-3, 48 h, read-out: GI
[9] = system: TK-10; experiment: Cytotoxicity against human TK10 cells at 10 uM after 48 hrs by SRB assay; format: functional; settings: TK-10, 48 h, read-out: GI
[10] = system: A498; experiment: Cytotoxicity against human A498 cells at 10 uM after 48 hrs by SRB assay; format: functional; settings: A498, 48 h, read-out: GI
[11] = system: 786-0; experiment: Cytotoxicity against human 786-0 cells at 10 uM after 48 hrs by SRB assay; format: functional; settings: 786-0, 48 h, read-out: GI
[12] = system: NCI/ADR-RES; experiment: Cytotoxicity against human NCI/ADR-RES cells at 10 uM after 48 hrs by SRB assay; format: functional; settings: read-out: GI
[13] = system: OVCAR-8; experiment: Cytotoxicity against human OVCAR8 cells at 10 uM after 48 hrs by SRB assay; format: functional; settings: OVCAR-8, 48 h, read-out: GI
[14] = system: OVCAR-5; experiment: Cytotoxicity against human OVCAR5 cells at 10 uM after 48 hrs by SRB assay; format: functional; settings: OVCAR-5, 48 h, read-out: GI
[15] = system: OVCAR-4; experiment: Cytotoxicity against human OVCAR4 cells at 10 uM after 48 hrs by SRB assay; format: functional; settings: OVCAR-4, 48 h, read-out: GI
[16] = system: IGROV-1; experiment: Cytotoxicity against human IGROV1 cells at 10 uM after 48 hrs by SRB assay; format: functional; settings: IGROV-1, 48 h, read-out: GI
[17] = system: UACC-62; experiment: Cytotoxicity against human UACC62 cells at 10 uM after 48 hrs by SRB assay; format: functional; settings: UACC-62, 48 h, read-out: GI
[18] = system: UACC-257; experiment: Cytotoxicity against human UACC257 cells at 10 uM after 48 hrs by SRB assay; format: functional; settings: UACC-257, 48 h, read-out: GI
[19] = system: SK-MEL-28; experiment: Cytotoxicity against human SK-MEL-28 cells at 10 uM after 48 hrs by SRB assay; format: functional; settings: SK-MEL-28, 48 h, read-out: GI
[20] = system: SK-MEL-5; experiment: Cytotoxicity against human SK-MEL-5 cells at 10 uM after 48 hrs by SRB assay; format: functional; settings: SK-MEL-5, 48 h, read-out: GI
[21] = system: SK-MEL-2; experiment: Cytotoxicity against human SK-MEL-2 cells at 10 uM after 48 hrs by SRB assay; format: functional; settings: SK-MEL-2, 48 h, read-out: GI
[22] = system: MDA-MB-435; experiment: Cytotoxicity against human MDA-MB-435 cells at 10 uM after 48 hrs by SRB assay; format: functional; settings: MDA-MB-435, 48 h, read-out: GI
[23] = system: LOX IMVI; experiment: Cytotoxicity against human LOXIMVI cells at 10 uM after 48 hrs by SRB assay; format: functional; settings: read-out: GI
[24] = system: SNB-19; experiment: Cytotoxicity against human SNB19 cells at 10 uM after 48 hrs by SRB assay; format: functional; settings: SNB-19, 48 h, read-out: GI
[25] = system: SF-295; experiment: Cytotoxicity against human SF295 cells at 10 uM after 48 hrs by SRB assay; format: functional; settings: SF-295, 48 h, read-out: GI
[26] = system: SW-620; experiment: Cytotoxicity against human SW620 cells at 10 uM after 48 hrs by SRB assay; format: functional; settings: SW-620, 48 h, read-out: GI
[27] = system: KM12; experiment: Cytotoxicity against human KM12 cells at 10 uM after 48 hrs by SRB assay; format: functional; settings: KM12, 48 h, read-out: GI
[28] = system: HT-29; experiment: Cytotoxicity against human HT-29 cells at 10 uM after 48 hrs by SRB assay; format: functional; settings: HT-29, 48 h, read-out: GI
[29] = system: HCT-15; experiment: Cytotoxicity against human HCT15 cells at 10 uM after 48 hrs by SRB assay; format: functional; settings: HCT-15, 48 h, read-out: GI
[30] = system: HCT-116; experiment: Cytotoxicity against human HCT116 cells at 10 uM after 48 hrs by SRB assay; format: functional; settings: HCT-116, 48 h, read-out: GI
[31] = system: COLO 205; experiment: Cytotoxicity against human COLO205 cells at 10 uM after 48 hrs by SRB assay; format: functional; settings: COLO 205, 48 h, read-out: GI
[32] = system: NCI-H522; experiment: Cytotoxicity against human NCI-H522 cells at 10 uM after 48 hrs by SRB assay; format: functional; settings: NCI-H522, 48 h, read-out: GI
[33] = system: NCI-H460; experiment: Cytotoxicity against human NCI-H460 cells at 10 uM after 48 hrs by SRB assay; format: functional; settings: NCI-H460, 48 h, read-out: GI
[34] = system: NCI-H226; experiment: Cytotoxicity against human NCI-H226 cells at 10 uM after 48 hrs by SRB assay; format: functional; settings: NCI-H226, 48 h, read-out: GI
[35] = system: NCI-H23; experiment: Cytotoxicity against human NCI-H23 cells at 10 uM after 48 hrs by SRB assay; format: functional; settings: NCI-H23, 48 h, read-out: GI
[36] = system: HOP-92; experiment: Cytotoxicity against human HOP92 cells at 10 uM after 48 hrs by SRB assay; format: functional; settings: HOP-92, 48 h, read-out: GI
[37] = Cytotoxicity against human EKVX cells at 10 uM after 48 hrs by SRB assay; format: functional; settings: read-out: GI
[38] = system: A549; experiment: Cytotoxicity against human A549 cells at 10 uM after 48 hrs by SRB assay; format: functional; settings: A549, 48 h, read-out: GI
[39] = system: SR; experiment: Cytotoxicity against human SR cells at 10 uM after 48 hrs by SRB assay; format: functional; settings: read-out: GI
[40] = system: MOLT-4; experiment: Cytotoxicity against human MOLT4 cells at 10 uM after 48 hrs by SRB assay; format: functional; settings: MOLT-4, 48 h, read-out: GI
[41] = system: RPMI-8226; experiment: Cytotoxicity against human RPMI8226 cells at 10 uM after 48 hrs by SRB assay; format: functional; settings: RPMI-8226, 48 h, read-out: GI
[42] = system: K562; experiment: Cytotoxicity against human K562 cells at 10 uM after 48 hrs by SRB assay; format: functional; settings: K562, 48 h, read-out: GI

C=CCn1c(C)nc2cc(Nc3nc(Cl)nc4ccccc34)ccc21
logD [1]: 1.17 | inhibition of growth at 10 µM [2]: < 10% | inhibition of growth at 10 µM [3]: 21.3% | inhibition of growth at 10 µM [4]: < 10% | inhibition of growth at 10 µM [5]: < 10% | inhibition of growth at 10 µM [6]: 14.5% | inhibition of growth at 10 µM [7]: 10.3% | inhibition of growth at 10 µM [8]: 19.5% | inhibition of growth at 10 µM [9]: < 10% | inhibition of growth at 10 µM [10]: 31.5% | inhibition of growth at 10 µM [11]: < 10% | inhibition of growth at 10 µM [12]: 10.5% | inhibition of growth at 10 µM [13]: < 10% | inhibition of growth at 10 µM [14]: < 10% | inhibition of growth at 10 µM [15]: < 10% | inhibition of growth at 10 µM [16]: < 10% | inhibition of growth at 10 µM [17]: 10.2% | inhibition of growth at 10 µM [18]: < 10% | inhibition of growth at 10 µM [19]: < 10% | inhibition of growth at 10 µM [20]: < 10% | inhibition of growth at 10 µM [21]: < 10% | inhibition of growth at 10 µM [22]: < 10% | inhibition of growth at 10 µM [23]: < 10% | inhibition of growth at 10 µM [24]: < 10% | inhibition of growth at 10 µM [25]: 10.3% | inhibition of growth at 10 µM [26]: < 10% | inhibition of growth at 10 µM [27]: < 10% | inhibition of growth at 10 µM [28]: < 10% | inhibition of growth at 10 µM [29]: < 10% | inhibition of growth at 10 µM [30]: < 10% | inhibition of growth at 10 µM [31]: < 10% | inhibition of growth at 10 µM [32]: < 10% | inhibition of growth at 10 µM [33]: < 10% | inhibition of growth at 10 µM [34]: 17.8% | inhibition of growth at 10 µM [35]: < 10% | inhibition of growth at 10 µM [36]: < 10% | inhibition of growth at 10 µM [37]: 17.2% | inhibition of growth at 10 µM [38]: < 10% | inhibition of growth at 10 µM [39]: < 10% | inhibition of growth at 10 µM [40]: < 10% | inhibition of growth at 10 µM [41]: 22.3% | inhibition of growth at 10 µM [42]: 21.3%
